According to US5101027A, “Synthesis of mannojirimycin derivatives” (Monsanto Company, priority 1990, dated 1992):

Experiments:
α-Fucosidase = biological target: T1, α-Fucosidase (Homo sapiens, UniProt P04066); experiment: % inhibition of human liver α-fucosidase catalysed hydrolysis; assay type: biochemical
T1 construct: from tissue; host or cells: human liver
T1 sequence (P04066 32-466): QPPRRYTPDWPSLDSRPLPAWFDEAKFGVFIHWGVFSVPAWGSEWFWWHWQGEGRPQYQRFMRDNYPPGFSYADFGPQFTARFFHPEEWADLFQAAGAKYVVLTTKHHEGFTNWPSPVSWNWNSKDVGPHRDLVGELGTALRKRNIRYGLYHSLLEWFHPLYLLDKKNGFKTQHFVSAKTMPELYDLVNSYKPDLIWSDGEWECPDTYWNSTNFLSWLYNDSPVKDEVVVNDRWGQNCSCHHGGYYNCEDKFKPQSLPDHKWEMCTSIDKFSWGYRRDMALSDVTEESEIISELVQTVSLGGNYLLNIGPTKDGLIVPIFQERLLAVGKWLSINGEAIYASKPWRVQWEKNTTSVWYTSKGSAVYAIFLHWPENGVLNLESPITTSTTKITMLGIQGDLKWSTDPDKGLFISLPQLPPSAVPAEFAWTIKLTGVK
Protocol: % Inhibition of human liver α-fucosidase and α-mannosidase
catalysed hydrolysis of 4-umbelliferyl pyrranosides at
1 mM concentration of inhibitor

human α-mannosidases = experiment: inhibition of human liver α-mannosidases (summary of lysosomal, Golgi II and neutral); assay type: biochemical; conditions: for specificity and potency of inhibition of human α-mannosidases, HMJ compared with DMJ: HMJ (6) vs DMJ (5)
Description: (§1) The relative potencies of these compounds as fucosidase inhibitors may be understood by considering them as analogues of α-L-fucose; all three compounds have the correct chirality of the secondary hydroxyl groups--the minimum requirement for inhibition of α-fucosidase. […] All the compounds are weaker inhibitors of α-fucosidase than is deoxyfuconojirimycin, since they all lack a lipophilic methyl substituent with correct configuration.

β-mannosidase = experiment: inhibition of human liver β-mannosidase; assay type: biochemical
Description: as §1

α-mannosidases = conditions: literature; cited from earlier work
α-glucosidase = conditions: literature; cited from earlier work
human liver α-fucosidase = conditions: literature; compared with deoxyfuconojirimycin (4); cited from earlier work

## OC[C@@H]1N[C@H](CO)[C@@H](O)[C@@H](O)[C@@H]1O [6-Epi-homomannojirimycin (8), 2,6-dideoxy-2,6-imino-L-glycero-D-talo-heptitol]
α-Fucosidase
  inhibition of α-fucosidase (in words): powerful inhibitors of α-fucosidase
Human α-mannosidases
  inhibition of α-mannosidases (in words): did not inhibit any α-mannosidase

## OC[C@H]1NC[C@@H](O)[C@@H](O)[C@@H]1O [Deoxymannojirimycin (5), Deoxymannojirimycin]
α-Fucosidase
  inhibition of α-fucosidase (in words): powerful inhibitors of α-fucosidase
β-mannosidase
  inhibition of β-mannosidase (in words): Neither compound inhibited β-mannosidase
Human α-mannosidases
  specificity and potency of inhibition of human α-mannosidases, HMJ compared with DMJ: very similar
α-mannosidases
  inhibition of α-mannosidases in general (in words): relatively weak inhibitor of α-mannosidases in general

## OC[C@H]1N[C@H](CO)[C@@H](O)C(O)[C@@H]1O (stereo partly drawn) [Homomannojirimycin (6), 2,6-dideoxy-2,6-imino-D-glycero-D-talo-heptitol]
α-Fucosidase
  inhibition of α-fucosidase (in words): only a weak inhibitor of this enzyme
β-mannosidase
  inhibition of β-mannosidase (in words): Neither compound inhibited β-mannosidase
Human α-mannosidases
  specificity and potency of inhibition of human α-mannosidases, HMJ compared with DMJ: very similar

## OC[C@H]1N[C@H](CO[C@@H]2O[C@H](CO)[C@@H](O)[C@H](O)[C@H]2O)[C@H](O)[C@@H](O)[C@@H]1O [β-glucopyranosyl derivative (2)]
α-glucosidase
  α-glucosidase inhibition (in words): powerful α-glucosidase inhibitor

## C[C@@H]1N[C@H](CO)[C@@H](O)[C@H](O)[C@@H]1O [homofuconojirimycin (3), homofuconojirimycin]
Human liver α-fucosidase
  inhibition of human liver α-fucosidase relative to deoxyfuconojirimycin (4): as powerful an inhibitor of human liver α-fucosidase as is deoxyfuconojirimycin (4)
